Assay results from publication PMC12073402, “A Selective MAP3K1 Inhibitor Facilitates Discovery of NPM1 as a Member of the Network” (Molecules, 2025).
Where two headings read alike, the source gives them in different places.

Tests used:
[1] = test system: NPM1 T199 phosphorylation; assay: Western blot of NPM1 T199 phosphorylation in PANC-1 cells; assay type: cell-based; conditions: 2 h
Excerpt: We further investigated changes in NPM1 phosphorylation in our dataset. Of the NPM1 phosphorylation sites quantified, four sites had significant dose-dependent decreases upon 51-106 treatment: S137, T199, S222, and S227. Only one of these phosphorylation sites, T199, has a commercially available antibody. Importantly, T199 phosphorylation plays an essential role in NPM1 function, as it is required for localization of NPM1 to sites of DNA double-stranded breaks, where it colocalizes with other DNA repair proteins such as γH2AX and RAD51 [38].
Cells were washed with cold 1× PBS and lysed in Radioimmunoprecipitation assay (RIPA) buffer (Cat# 89901; Thermo Fisher Scientific), sodium orthovanadate (Na3VO4) (Cat# 567540-5GM; Sigma-Aldrich; St. Louis, MO, USA), sodium fluoride (NaF) (Cat# 201154-5G, >99% purity; Sigma-Aldrich), β-glycerophosphate (Cat# G9422-10G; Sigma-Aldrich), and 1 mM phenylmethylsulfonyl fluoride (Cat# 10837091001; Sigma Aldrich). The samples were incubated on ice for 30 min, vortexed at 10 min intervals, and centrifuged at 14,000× g for 10 min at 4 °C. The supernatant was collected, and protein was quantified using the BCA Protein Assay kit (Cat# 23225; Thermo Fisher Scientific). […]

[2] = design: method as in PMID 34098465; conditions: cited from earlier work
[3] = test system: TNFα-induced IKKβ-mediated NFκB activation; design: method as in PMID 34098465; conditions: analog 84 over the earlier IKKβ inhibitor; cited from earlier work
[4] = test system: pancreatic cancer mouse model; design: method as in PMID 34098465; conditions: by itself and in combination with gemcitabine; cited from earlier work
[5] = Metabolic stability in human liver microsomes (LC-MS/MS); assay type: in vitro ADME; conditions: Species Human
Excerpt: An approach to address this issue of bioavailability is to improve metabolic stability. The para-position of the phenyl ring in acetanilide moieties is susceptible to oxidation. […] To test this, we altered the substitution pattern on the phenyl ring by moving the F atom from the ortho in 84 to the para position (Figure 1A). The regioisomer 51-106, resulting from the above change, was synthesized by coupling 3-(1-methyl-1H-pyrazol-4-yl)quinoxalin-6-amine (1) with freshly prepared 1-fluoro-4-isocyanato-2-(trifluoromethyl)benzene in dichloromethane (Scheme 1). To determine the metabolic stability of 51-106, we incubated 51-106 and analog 84 with human (pooled male and female) liver microsomes and monitored their stability using liquid chromatography–tandem mass spectrometry.
The in vitro metabolic stability of 51-106 was determined using human liver […] (XenoTech, LLC; Kansas City, KS, USA), following previously reported methods. […] Sample analysis was performed by liquid chromatography–tandem mass spectrometry (SCIEX QTRAP 4000 LC-MS/MS System, SCIEX, Framingham, MA, USA).

T1/2 (half-life) in human liver microsomes [5] | Hepatic Extraction Ratio (E) ([5]; human liver microsomes) | half-life ([5]; both sexes, human, liver microsomes, read-out: T1/2 (half-life) in human liver microsomes (converted)) | SMILES | NPM1 T199 phosphorylation (Western blot) [1] | AUC0-∞ ([2]; 20 mg/kg, Oral) | AUClast ([2]; 20 mg/kg, Oral) | Cmax ([2]; 20 mg/kg, Oral) | MRT 0-∞ ([2]; 20 mg/kg, Oral) | T1/2 ([2]; 20 mg/kg, Oral) | Tmax ([2]; 20 mg/kg, Oral) | Bioavailability (%F) ([2]; 20 mg/kg, Oral, listed as 84) | Bioavailability (%F) ([2]; 20 mg/kg, Oral, listed as analog 84) | improved bioavailability ([2]; analog 84 over the earlier IKKβ inhibitor) | improved potency [3] | tumor growth [4]
 |  |  | CN[C@@H]1C[C@H]2O[C@@](C)([C@@H]1OC)n1c3ccccc3c3c4c(c5c6ccccc6n2c5c31)C(=O)NC4 [Staurosporine, reference compound] | Decreased phosphorylation in NPM1 T199 |  |  |  |  |  |  |  |  |  |  | 
~ 13 h | 0.09 | 816 min | Cn1cc(-c2cnc3ccc(NC(=O)Nc4cccc(C(F)(F)F)c4F)cc3n2)cn1 [Analog 84] |  | 8008 ± 3696 ng·h/mL | 7986 ± 3675 ng·h/mL | 700 ± 320 ng/mL | 6.3 ± 0.5 h | 2.5 ± 0.3 h | 6.0 h | 17.6% | ~17% | ~ 5.7 fold | ~ 4 fold | inhibited tumor growth
